Here are results for 28 molecules from US8895568B2, “Compositions comprising substituted pteridines as agrochemicals” (Dow AgroSciences LLC, priority 2009, dated 2014).

Where two headings read alike, the source gives them in different places.

Common to all, as to format: in vivo
Experiment [1] relates to Colletotricum lagenarium. The experiment can be described thus: Cucumber Anthracnose (COLLLA), foliar spray, percent disease control. The procedure: The activity of the compounds as effective fungicides was determined by applying the compounds to plants and observing control of fungal disease. The compounds were formulated at 200 ppm in 10 vol. % acetone plus 90 vol. % Triton X water (deionized water 99.99 wt %+0.01 wt % Triton X100), giving a “formulated test compound.” In a few cases, compounds were formulated at 75 or 8.3 ppm rather than 200 ppm in 10 vol. % acetone plus 90 vol. % Triton X water (deionized water 99.99 wt. %+0.01 wt. % Triton X100), giving a “formulated test compound.” Formulated test compounds were applied to plants using a turn table sprayer fitted with two opposing air atomization nozzles which delivered approximately 1500 L/ha of spray volume. All plants were inoculated with spores of the fungus the day after treatment, then incubated in an environment conducive to disease development. Disease severity was evaluated 4 to 15 days later, depending on the disease and the speed of disease development. The following experiments were performed in the laboratory to determine the fungicidal efficacy of the compounds of the invention. Cucumber Anthracnose (causal agent Colletotricum lagenarium; Bayer code COLLLA): Cucumber plants (variety Bush Champion) were grown from seed in a soil-less peat-based potting mixture (Metromix) until the first true leaf was 20-80% expanded. Each pot contained 1 seedling. These plants were sprayed until wet with the formulated test compound. On the following day, the leaves were inoculated with an aqueous spore suspension of Colletotricum lagenarium and the plants were kept in high humidity for one day to permit spores to germinate and infect the leaf. The plants were then transferred to a growth chamber until disease developed on untreated control plants. […] The effectiveness of the test compounds at controlling disease when sprayed on leaves was determined by assessing the severity of disease on treated plants, then converting the severity to percent control based on the level of disease on untreated, inoculated plants. Data are the level (in percent) at which the given disease was controlled when the given compound was applied to the foliage of the plants at 200 ppm. In a few cases (noted in the table) the compound was applied to the plants at 75 ppm or 8.3 ppm.

The test system of experiment [2] is Cochliobolus sativus. The experiment can be described thus: Spot Blotch of Wheat (COCHSA), foliar spray, percent disease control.
Experiment [3] deals with Pseudoperonospora cubensis. The experiment can be described thus: Cucumber Downy Mildew (PSPECU), foliar spray, percent disease control. Conditions: read-out: PSPECU percent control. As for the experimental part:
The activity of the compounds as effective fungicides was determined by applying the compounds to plants and observing control of fungal disease. The compounds were formulated at 200 ppm in 10 vol. % acetone plus 90 vol. % Triton X water (deionized water 99.99 wt %+0.01 wt % Triton X100), giving a “formulated test compound.” In a few cases, compounds were formulated at 75 or 8.3 ppm rather than 200 ppm in 10 vol. % acetone plus 90 vol. % Triton X water (deionized water 99.99 wt. %+0.01 wt. % Triton X100), giving a “formulated test compound.” Formulated test compounds were applied to plants using a turn table sprayer fitted with two opposing air atomization nozzles which delivered approximately 1500 L/ha of spray volume. All plants were inoculated with spores of the fungus the day after treatment, then incubated in an environment conducive to disease development. Disease severity was evaluated 4 to 15 days later, depending on the disease and the speed of disease development. The following experiments were performed in the laboratory to determine the fungicidal efficacy of the compounds of the invention. Cucumber Downy Mildew (causal agent Pseudoperonospora cubensis; Bayer code […]): Cucumber plants (variety Bush Champion) were grown from seed in a soil-less peat-based potting mixture (Metromix) until the first true leaf was 20-80% expanded. Each pot contained 1 seedling. These plants were sprayed until wet with the formulated test compound. On the following day, the leaves were inoculated with an aqueous suspension of downy mildew sporangia and the plants were kept in high humidity for one day to permit sporangia to germinate and infect the leaf. The plants were then incubated in a growth chamber until disease developed on untreated control plants. […] The effectiveness of the test compounds at controlling disease when sprayed on leaves was determined by assessing the severity of disease on treated plants, then converting the severity to percent control based on the level of disease on untreated, inoculated plants. Data are the level (in percent) at which the given disease was controlled when the given compound was applied to the foliage of the plants at 200 ppm. In a few cases (noted in the table) the compound was applied to the plants at 75 ppm or 8.3 ppm.

Setting [4] is: Bipolaris sorokiniana, foliar; read-out: COCHSA percent control.
The mark [5] stands for this setting: Bipolaris sorokiniana; foliar spray; read-out: COCHSA percent control.

Consider `COc1cc(C(F)(F)F)cc(Oc2ccc(CCNc3ncnc4nccnc34)cc2C)n1` [Compound 167], for which the pest or weed control at 200 µg/mL in experiment [1] (foliar) was in the range of 0 to 49%; in experiment [2] (setting [4]), 0 to 49%; in experiment [3] (foliar), 80 to 100%.

Regarding `FC(F)(F)c1cnccc1Oc1cccc(CCNc2ncnc3nccnc23)c1` [Compound 77], the figures for the pest or weed control at 200 µg/mL in experiment [1] (foliar), in experiment [2] (setting [4]) and in experiment [3] (foliar) were 0 to 49%, 0 to 49% and 80 to 100%, respectively.

Consider `c1ccc(OCc2nnc(Oc3ccc(CCNc4ncnc5nccnc45)cc3)s2)cc1` [Compound 27], for which the pest or weed control at 200 µg/mL in experiment [1] (foliar), in experiment [2] (setting [4]) and in experiment [3] (foliar) was 0 to 49% throughout.

Take `[O-][n+]1ccnc(Oc2ccc(CCNc3ncnc4nccnc34)cc2)c1` [Compound 29]: the pest or weed control at 200 µg/mL in experiment [1] (foliar) lay in the range of 0 to 49%; in experiment [2] (setting [4]), 0 to 49%; in experiment [3] (foliar) it was 80 to 100%.

On to `FC(F)(F)c1ccc(Oc2cccc(CCNc3ncnc4nccnc34)c2)nc1` [Compound 47], for which the pest or weed control at 200 µg/mL in experiment [1] (foliar) was in the range of 50 to 79%; in experiment [2] (setting [4]) it was 0 to 49%; in experiment [3] (foliar) it was 80 to 100%.

For `COc1cc(CCNc2ncnc3nccnc23)cc(OC)c1O` [Compound 181], the pest or weed control at 200 µg/mL in experiment [1] (foliar), in experiment [2] (setting [4]) and in experiment [3] (foliar) was 0 to 49% throughout.

In the case of `Oc1cccc(CCNc2ncnc3nccnc23)c1` [Compound 20], the pest or weed control at 200 µg/mL in experiment [1] (foliar), in experiment [2] (setting [4]) and in experiment [3] (foliar) was 0 to 49% in each case.

On to `c1ccc(COc2ccc(CCNc3ncnc4nccnc34)cc2)cc1` [Compound 1, [2-(4-Benzyloxyphenyl)-ethyl]-pteridin-4-yl-amine], for which the pest or weed control at 200 µg/mL in experiment [1] (foliar) is 80 to 100%; in experiment [2] (setting [4]), 50 to 79%; in experiment [3] (foliar), 80 to 100%.

`Oc1ccc(CCNc2ncnc3ncc(Cl)nc23)cc1` [Compound 73]: the pest or weed control at 200 µg/mL in experiment [1] (foliar), in experiment [2] (setting [4]) and in experiment [3] (foliar) was 0 to 49% each time.

As to `Clc1nccc(Oc2ccc(CCNc3ncnc4nccnc34)cc2)n1` [Compound 24], the values for the pest or weed control at 200 µg/mL in experiment [1] (foliar), in experiment [2] (setting [4]) and in experiment [3] (foliar) were 50 to 79%, 0 to 49% and 80 to 100%, respectively.

For the molecule `FC(F)(F)c1ccnc(Oc2ccc(CCNc3ncnc4nccnc34)cc2)n1` [Compound 3], the values for the pest or weed control at 200 µg/mL in experiment [1] (foliar), in experiment [2] (setting [4]) and in experiment [3] (foliar) were 50 to 79%, 0 to 49% and 80 to 100%, respectively.

As for `COc1cc(C(F)(F)F)cc(Oc2ccc(CCNc3ncnc4nccnc34)cc2)n1` [Compound 171], the values for the pest or weed control at 200 µg/mL in experiment [1] (foliar), in experiment [2] (setting [4]) and in experiment [3] (foliar) were 0 to 49%, 0 to 49% and 80 to 100%, respectively.

With `CC(C)(C)[Si](C)(C)Oc1ccc(CCNc2ncnc3nccnc23)cc1` [Compound 133, {2-[4-(tert-Butyldimethylsilanyloxy)-phenyl]-ethyl}-pteridin-4-yl-amine], the pest or weed control at 200 µg/mL in experiment [1] (foliar) lay in the range of 0 to 49%; in experiment [2] (Bipolaris sorokiniana, foliar, read-out: COCHSA percent control), 0 to 49%; in experiment [3] (foliar), 80 to 100%.

As for `Fc1cnc(C(F)(F)F)c(F)c1Oc1ccc(CCNc2ncnc3nccnc23)cc1` [Compound 72], the pest or weed control at 200 µg/mL in experiment [1] (foliar) fell in the range of 50 to 79%; in experiment [2] (setting [4]), 0 to 49%; in experiment [3] (foliar), 80 to 100%.

On to `CC(C)Oc1cc(CCNc2ncnc3nccnc23)ccc1Oc1cc(C(F)(F)F)ccn1` [Compound 180, {2-[3-(Isopropoxy)-4-(4-trifluoromethyl-pyridin-2-yloxy)-phenyl]-ethyl}-pteridin-4-ylamine], for which the results for the pest or weed control at 200 µg/mL in experiment [1] (foliar), in experiment [2] (setting [4]) and in experiment [3] (foliar) were 50 to 79%, 0 to 49% and 80 to 100%, respectively.

For `Cc1cnc2ncnc(NCCc3ccc(O)cc3)c2n1` [Compound 38], the pest or weed control at 200 µg/mL in experiment [1] (foliar), in experiment [2] (setting [4]) and in experiment [3] (foliar) was 0 to 49% in each case.

Turning to `COc1ccc(CCNc2ncnc3nccnc23)cc1Br` [Compound 210], the figures for the pest or weed control at 200 µg/mL in experiment [1] (foliar spray), in experiment [2] (setting [5]) and in experiment [3] (foliar spray) were 0 to 49%, 0 to 49% and 80 to 100%, respectively.

As to `CON=C(C)c1ccnc(Oc2ccc(CCNc3ncnc4nccnc34)cc2)c1` [Compound 63], the pest or weed control at 200 µg/mL lay in the range of 0 to 49% in experiment [1] (foliar), 0 to 49% in experiment [2] (setting [4]) and 80 to 100% in experiment [3] (foliar).

On to `CC(F)(F)c1ccnc(Oc2ccc(CCNc3ncnc4nccnc34)cc2O)c1` [Compound 197, 2-[4-(1,1-Difluoroethyl)-pyridin-2-yloxy]-5-[2-(pteridin-4-ylamino)-ethyl]-phenol], for which the results for the pest or weed control at 200 µg/mL in experiment [1] (foliar), in experiment [2] (setting [4]) and in experiment [3] (foliar) were 0 to 49%, 0 to 49% and 80 to 100%, respectively.

`COc1ccc(CCNc2ncnc3nccnc23)cc1F` [Compound 176]: the pest or weed control at 200 µg/mL in experiment [1] (foliar), in experiment [2] (setting [4]) and in experiment [3] (foliar) was 0 to 49% in each case.

Take `Cc1nc(NCCc2ccc(O)cc2)c2nc(C)c(C)nc2n1` [Compound 209]: the pest or weed control at 200 µg/mL in experiment [1] (foliar spray), in experiment [2] (setting [5]) and in experiment [3] (foliar spray) was 0 to 49% each time.

`CC(F)(F)c1cc[n+]([O-])c(Oc2ccc(CCNc3ncnc4nccnc34)cc2)c1` [Compound 184, (2-{4-[4-(1,1-difluoroethyl)-1-oxy-pyridin-2-yloxy]-phenyl}-ethyl)-pteridin-4-yl-amine]: the pest or weed control at 200 µg/mL in experiment [1] (foliar) was 50 to 79%; in experiment [2] (setting [4]), 0 to 49%; in experiment [3] (foliar), 80 to 100%.

For the molecule `CC(C)(C)c1cc[n+]([O-])c(Oc2ccc(CCNc3ncnc4nccnc34)cc2)c1` [Compound 172, {2-[4-(4-tert-Butyl-1-oxypyridin-2-yloxy)-phenyl]-ethyl}-pteridin-4-ylamine], the pest or weed control at 200 µg/mL in experiment [1] (foliar) lay within 0 to 49%; in experiment [2] (setting [4]) it was 0 to 49%; in experiment [3] (foliar), 80 to 100%.

As to `Oc1ccc(CCNc2ncnc3nccnc23)cc1` [Compound 4, 4-[2-(Pteridin-4-ylamino)-ethyl]-phenol], the pest or weed control at 200 µg/mL in experiment [1] (foliar), in experiment [2] (setting [4]) and in experiment [3] (foliar) was 0 to 49% throughout.

Consider `Fc1cccc(Oc2ccc(OCCNc3ncnc4nccnc34)cc2)n1` [Compound 159], for which the pest or weed control at 200 µg/mL in experiment [1] (foliar) lay within 0 to 49%; in experiment [2] (setting [4]), 0 to 49%; in experiment [3] (foliar) it was 80 to 100%.

In the case of `O=C(c1ccnc(Oc2ccc(CCNc3ncnc4nccnc34)cc2)c1)C1CC1` [Compound 64], the pest or weed control at 200 µg/mL lay within 0 to 49% in experiment [1] (foliar), 0 to 49% in experiment [2] (setting [4]) and 80 to 100% in experiment [3] (foliar).

With `N#Cc1ccnc(Oc2ccc(OCCNc3ncnc4nccnc34)cc2)c1` [Compound 85], the pest or weed control at 200 µg/mL in experiment [1] (foliar) was 0 to 49%; in experiment [2] (setting [4]), 0 to 49%; in experiment [3] (foliar), 80 to 100%.

Take `CC(=O)Oc1cc(CCNc2ncnc3nccnc23)ccc1Oc1cc(C(C)(F)F)ccn1` [Compound 196]: the pest or weed control at 200 µg/mL was 0 to 49% in experiment [1] (foliar), 0 to 49% in experiment [2] (setting [4]) and 80 to 100% in experiment [3] (foliar).
